Reference: publication PMC11378298 (ACS Chemical Neuroscience, 2024)

System: HT-22 cells
Experiment: Cytotoxicity in HT-22 cells (PrestoBlue)
Conditions: whole range of concentrations 0.1–100 μM
Method: The compounds were tested at 5 concentrations (0.1, 1, 10, 50, and 100 μM).
Mouse Hippocampal Neuronal Cell Line (HT-22) was a generous gift from Dr Bartosz Pomierny of the Department of Biochemical Toxicology, Jagiellonian University Medical College, Krakow, Poland. Cells were cultured in Dulbecco’s modified Eagle’s Medium—high glucose (DMEM, Glutamax Thermo Fisher) supplemented with 10% heat-inactivated fetal bovine serum (Thermo Fisher), 100 IU/mL penicillin (Merck) and 100 μg/mL streptomycin (Merck). Cells were cultured in flasks (area 175 cm^2, Nunc), and incubated at 37 °C, 5% CO2. For the measurement of cell viability and neuroprotective effect against okadaic acid cells were placed in a 96-well culture plate (2 × 10^4 cells per well, Falcon). Before the tests, cells were grown for 24 h in the incubator (37 °C, 5% CO2).
Cell viability was evaluated using the PrestoBlue reagent (ThermoFisher), according to the manufacturer’s procedures.[87] Following 24 h of incubation with the tested molecule, PrestoBlue reagent was added to a microplate well in an amount equal to one-tenth of the remaining medium volume. The resulting mixture was incubated for 15 min at 37 °C, and the fluorescence intensity (EX 530 nm; EM 580 nm) was measured in the plate reader POLARstar Omega, (BMG Labtech).

Compound: O=C(Nc1cc(-c2ccc(-c3ncon3)s2)ccn1)C1CC1 [Compound 36, N-(4-(5-(1,2,4-Oxadiazol-3-yl)thiophen-2-yl)pyridin-2-yl)cyclopropanecarboxamide]
- cell viability in HT-22 cells: No significant decrease in cell viability
